# Measured values reported in patent publication US6495578B1, “Sulfonamide derivatives having oxadiazole rings” (Shionogi & Co., Ltd., priority 1999, dated 2002).
# Target: T1, MMP-2 (Homo sapiens, UniProt P08253)
# T1 construct: purchased Calbiochem-Novabiochem International, Inc
# T1 sequence (P08253 110-660): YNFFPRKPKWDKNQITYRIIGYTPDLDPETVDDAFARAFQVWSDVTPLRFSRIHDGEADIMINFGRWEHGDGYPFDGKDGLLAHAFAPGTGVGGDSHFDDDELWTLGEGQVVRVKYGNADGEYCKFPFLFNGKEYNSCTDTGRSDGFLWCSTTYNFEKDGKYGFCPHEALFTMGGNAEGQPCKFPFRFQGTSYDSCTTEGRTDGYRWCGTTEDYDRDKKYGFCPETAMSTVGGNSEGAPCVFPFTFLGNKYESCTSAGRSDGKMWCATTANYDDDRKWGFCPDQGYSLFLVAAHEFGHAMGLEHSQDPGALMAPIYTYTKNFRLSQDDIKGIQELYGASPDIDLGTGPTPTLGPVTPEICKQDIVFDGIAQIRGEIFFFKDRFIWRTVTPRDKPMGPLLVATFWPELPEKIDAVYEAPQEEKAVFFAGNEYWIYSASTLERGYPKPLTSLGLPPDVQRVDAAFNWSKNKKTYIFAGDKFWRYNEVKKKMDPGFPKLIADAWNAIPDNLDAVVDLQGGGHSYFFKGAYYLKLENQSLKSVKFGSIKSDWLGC
# Experiment: Assay for inhibitory activities on MMP-2 (fluorogenic coumarin-labelled peptide substrate)
# Assay type: biochemical
# Conditions: MMP-2 purchased from Calbiochem-Novabiochem; substrate MOCAc-Pro-Leu-Gly-Leu-A2Pr(DNP)-Ala-Arg-NH2
# Method: MMP-2 was purchased from Calbiochem-Novabiochem International, Inc.
# The enzymatic activity on MMP-2 was analyzed by the method described in “C. Graham Knight, Frances Willenbrock and Gillian Murphy: A novel coumarin-labelled peptide for sensitive continuous assays of the matrix metalloproteinases: FEBS LETT., 296, (1992), 263-266”. The substrate: MOCAc-Pro-Leu-Gly-Leu-A2Pr(DNP)-Ala-Arg-NH2 was purchased from Peptide Institute, Inc., Osaka, Japan.
# The measurement of the inhibitory activities (IC50) was carried out by the following four methods;
# A) Reaction with substrate, enzyme (MMPs) and inhibitor
# B) Reaction with substrate and inhibitor, without enzyme
# C) Reaction with substrate and enzyme (MMPs), without inhibitor
# D) Reaction with substrate only
# IC50 values were calculated by using the following formula and each fluorescence values of above four methods (A to D).
# IC50 means the concentration required to inhibit 50% of the enzyme activity.
row,IC50,SMILES
1,17.8 nM,CCc1ccc(-c2nc(-c3ccc(S(=O)(=O)N[C@H](Cc4ccccc4)C(=O)O)s3)no2)cc1 [Compound B-4]
2,36.1 nM,CCCc1ccc(-c2nc(-c3ccc(S(=O)(=O)N[C@H](Cc4ccccc4)C(=O)O)s3)no2)cc1 [Compound B-5]
3,39 nM,Cc1ccc(-c2nc(-c3ccc(S(=O)(=O)NCC(=O)O)s3)no2)cc1 [Compound B-15]
4,224 nM,O=C(O)CNS(=O)(=O)c1ccc(-c2noc(-c3ccc(F)cc3)n2)s1 [Compound B-14]

# Continued, compound first:
row,SMILES,IC50
1,Cc1ccc(-c2nc(-c3ccc(S(=O)(=O)N[C@H](C)C(=O)O)cc3)no2)s1 [Compound A-53],8.74 nM
2,COc1ccc(-c2nc(-c3ccc(S(=O)(=O)N[C@@H](Cc4ccccc4)C(=O)O)cc3)no2)cc1OC [Compound A-38],506 nM
3,CCCCc1ccc(-c2nc(-c3ccc(S(=O)(=O)N[C@H](Cc4ccccc4)C(=O)O)cc3)no2)cc1 [Compound A-9],6.04 nM
4,CC(C)c1ccc(-c2nc(-c3ccc(S(=O)(=O)NCC(=O)O)cc3)no2)cc1 [Compound A-60],14.3 nM
5,O=C(O)CNS(=O)(=O)c1ccc(-c2noc(-c3ccc(Cl)cc3)n2)cc1 [Compound A-13],85.2 nM
6,Cc1ccc(-c2nc(-c3ccc(S(=O)(=O)N[C@@H](C(=O)O)C(C)C)cc3)no2)cc1 [Compound A-1],4.62 nM
7,C[C@@H](NS(=O)(=O)c1ccc(-c2noc(-c3ccc(Cl)cc3)n2)cc1)C(=O)O [Compound A-11],18.6 nM
8,Cc1ccc(-c2nc(-c3ccc(S(=O)(=O)NCC(=O)O)cc3)no2)cc1 [Compound A-12],51.6 nM
9,C[C@@H](NS(=O)(=O)c1ccc(-c2noc(-c3cccs3)n2)cc1)C(=O)O [Compound A-52],36.8 nM

# Tested on: not given
# Experiment: not given
# Conditions: not given
row,melting point,SMILES
1,208 to 209 °C,Cc1ccc(-c2nc(-c3ccc(S(=O)(=O)N[C@@H](C(=O)O)C(C)C)cc3)no2)cc1 [Compound A-1]
